# Experimental data as given in paper PMC9276676, “Difluoromethylornithine (DFMO) and AMXT 1501 inhibit capsule biosynthesis in pneumococci” (Scientific Reports, 2022).
# System: S. pneumoniae D39
# Type: cell-based, Streptococcus pneumoniae
# Experimental: This was done to directly compare possible changes in intracellular concentrations of polyamines and capsule precursors as a result of DFMO inhibition of polyamine synthesis to the earlier report where polyamine synthesis was affected via gene deletion in TIGR4[24]. […] Cells were harvested (5000×g, 10 min, 4 °C), re-suspended in extraction solvent [40% acetonitrile, 40% methanol, 20% water with formic acid (0.1 M)] and transferred to bead-beater tubes (MP Biomedicals, Irvine, CA, USA). Cells were lysed using a FastPrep-24™ Classic (45 s, 6.5 m/s, RT, 3 times) (MP Biomedicals, Irvine, CA, USA) and incubated on ice (5 min after each spin). TIGR4 lysates were clarified (6000×g, 5 min, 4 °C), and metabolite differentiation and detection were performed using published protocols[28],[29]. Liquid chromatography-mass spectrometry-based (LC–MS) metabolomic analysis was performed with an Agilent Accurate Mass 6230 TOF coupled with an Agilent 1290 LC system using a Cogent Diamond Hydride Type C column. Briefly, the mobile phase consisted of the following: solvent A (ddH2O with 0.2% formic acid) and solvent B (acetonitrile with 0.2% formic acid). The gradient used was as follows: 0–2 min, 85% B; 3–5 min, 80% B; 6–7 min, 75% B; 8–9 min, 70% B; 10–11.1 min, 50% B; 11.1–14 min 20% B; 14.1–24 min 5% B followed by a 10 min re-equilibration period at 85% B at a flow rate of 0.4 mL/min. Mass axis dynamics was calibrated by continuous infusion of a reference mass solution using an isocratic pump. […] Metabolite identities were searched for using a mass tolerance of < 0.005 Da. Metabolite concentrations from the 5 biological replicates were normalized to biomass based on measurement of residual peptide content in individual samples using the Pierce BCA Protein Assay kit (Thermo Fisher Scientific, Waltham, MA, USA). Data were analyzed using Profinder B.07.00 software (Agilent Technologies, Santa Clara, CA, USA). Extracted molecular features detected in the mass analyzer were identified using accurate mass values and used to generate empirical molecular formulae using an in-house metabolite database that included known intermediates, amino acid precursors and polyamines and their derivatives. Statistical analysis of metabolite peak intensity data was performed using MetaboAnalyst 4.0[30]. Data were normalized (quantile), log transformed and significant fold change between WT and DFMO-treated WT were identified by Student’s t-test (p ≤ 0.05).
# To measure the polyamines, glucose and glucuronic acid in D39, TSQ Quantum Access triple-quadrupole tandem mass spectrometer (Thermo Fisher Scientific, Waltham, MA, USA) equipped with acquity UPLC system (Waters, Milford, MA, USA) was operated in positive and negative ion mode. Chromatographic separation was performed on Cogent Diamond Hydride HPLC column (2.1 mm × 150 mm, 4 μm) coupled with Congent Diamond Hydride HPLC Guard column (2.0 mm × 10 mm, 4 μm). The flow rate was 500 µL/min, the sample injection volume was 10 µL, and the column temperature was at 40 °C. The mobile phase A was composed of water with 0.1% v/v formic acid, and mobile phase B was composed of acetonitrile with 0.1% v/v formic acid. The gradient condition was 0 min (5% A, 95% B), 1 min (5% A, 95% B), 4.0 min (30% A, 70% B), 6 min (95% A, 5% B), 6.5 min (95% A, 5% B), 7 min (5% A, 95% B), and 10 min (5% A, 95%B). The total run time was 10 min, and the column eluate directed into the mass spectrometer using an electrospray ionization interface in positive and negative modes. The MS conditions were set as follow: spray voltage = 3500 V, vaporizer temperature = 350 °C, sheath gas = 25 psi, auxiliary gas = 10 psi, and capillary temperature = 350 °C. Samples were run in selected reaction monitoring (SRM) mode, and the optimized MS/MS parameters for ionization are given in Table 1.
# [1] = DFMO 34 mM, agmatine 20 mM, AMXT 1501 7.4 µM, p-value in bracket omitted
smiles,measurement,setting,value
"NCCC[C@](N)(C(=O)O)C(F)F [DFMO, α-difluoromethylornithine]",intracellular glucose (peak intensity),"1/8 MIC DFMO (34 mM), 1/2 MIC AMXT 1501 (7.4 µM)",significantly reduced
same,intracellular glucuronic acid (peak intensity),"1/8 MIC DFMO (34 mM), 1/2 MIC AMXT 1501 (7.4 µM), separately or in combination",significantly depleted
same,"Agmatine, fold change treated D39 /D39",[1],-1.3 (2.13E05)
same,"Cadaverine, fold change treated D39 /D39",[1],-0.8 (0.004)
same,"Lysine, fold change treated D39 /D39",[1],-0.2 (0.018)
same,"N-acetyl spermidine, fold change treated D39 /D39",[1],-0.6 (0.094)
same,"N-carbamoyl putrescine, fold change treated D39 /D39",[1],-1.6 (0.026)
same,"Ornithine, fold change treated D39 /D39",[1],0.4 (0.004)
same,"Putrescine, fold change treated D39 /D39",[1],-0.4 (0.015)
same,"Spermidine, fold change treated D39 /D39",[1],0.3 (0.309)
same,"Spermine, fold change treated D39 /D39",[1],-0.7 (0.002)
